Experiments:
[1] = In vitro skin penetration study using pig-ear (Bronaugh diffusion cells); type: in vitro ADME; settings: receiver PBS pH 7.4, 32° C.; for Cumulative penetrated amount: 24-hour period, pig-ear skin; for Steady state flux: pig-ear skin approx. 900 μm, average ± SD
Method: Bronaugh diffusion cells were used for in vitro penetration studies, which were carried out to determine the flux (i.e. the speed by which the compound penetrates skin) and total cumulated amount penetrated of ^14C-active ingredient. The compound was dissolved in water at two concentrations, 35 and 135 mg/g. Pig-ear full-thickness skin (dermatomed to approx. 900 μm thick) was used as the membrane. The receiver compartment contained phosphate buffered saline (pH 7.4) and the temperature was maintained at 32° C. The compound solutions were applied onto the stratum corneum. Receiver compartment samples (2, 4, 8 12 and 14 h) were assayed by liquid scintillation counting. The transdermal flux (μg/cm^2/h) can be determined from the steady-state slope of the plot of the cumulative amount of active ingredient permeating through the skin versus time. After steady-state was established, the linear portion of the plot was used to calculate the flux from the slope.
The cumulative penetrated amounts and derived steady state fluxes for both tested concentrations during a 24-hour period are presented in FIG. 1 and TABLE 1.

[2] = Maximal solubility in water; type: physicochemical
[3] = test concentration 35 mg/g water
[4] = test concentration 135 mg/g water

With CN[C@@H](C)C/C=C/c1cncc(OC(C)C)c1 [active ingredient, (2S)-(4E)-N-methyl-5-(3-(5-isopropoxypyridin)yl)-4-penten-2-amine] the Cumulative penetrated amount [1, 3] was 27 ± 36 μg/cm^2, the Steady state flux [1, 3] was 2.6 ± 3.6 μg/cm^2/h and the Cumulative penetrated amount [1, 4] was 55 ± 88 μg/cm^2. The Steady state flux [1, 4] was 5.1 ± 9.0 μg/cm^2/h and the “maximal solubility in water” value [2] was 200 mg/g.

Reference: US20100247617A1, “Transdermal Administration Of (2S)-(4E)-N-Methyl-5-(3-(5-Isopropoxypyridin)yl)-4-Penten-2-Amine” (TARGACEPT, INC., priority 2007, published 2010)
